{"source": "paper PMC10458458", "about": "“Characterization of Anticancer Effects of the Analogs of DJ4, a Novel Selective Inhibitor of ROCK and MRCK Kinases” (Pharmaceuticals, 2023)", "key": {"[1]": {"test_system": "MDA-MB-231 breast cancer cells", "assay": "Live/dead cell count (Muse)", "type": "cell-based, human", "conditions": "24 h", "method": "Figure 2 DJ4 reduces cell survival and inhibits colony forming ability of the cancer cells. (A) Different NSCLC cells were plated in a 96-well plate to confluence and then treated for 72 h. Cytotoxicity was assessed by MTT assay. The error bars indicate SEM of triplicates. (B) To assess cytotoxicity of DJ4 in breast cancer cells, MDA-MB-231 cells were treated for 24 h with indicated concentrations of DJ4. Percentage of live cells were counted using Muse^TM Live/Dead reagent and analyzed by Muse^TM cell analyzer. Error bars indicate SEM. n = 2. * p < 0.05. (C) DJ4 inhibits colony forming ability of A549 cells treated for 48 h. After a 48-h treatment, cells were seeded with number of cells mentioned in the table and were allowed to grow and form colonies. At the end of 14 days, colonies were stained and counted. Percent surviving fraction was calculated. The figure is the representative of the replicates. (D) The data are summarized in the table and represent the average of three replicates. […]\nMDA-MB-231 cells were treated for 24 h with 1 µM, 2.5 µM, 5 µM, and 10 µM concentrations of DJ4. […] Cell number and cell viability were analyzed using Muse^TM Cell Viability reagent and Muse^TM (Millipore, Inc. Burlington, MA, USA) cell analyzer as per the manufacturer’s instructions."}, "CDK11": {"test_system": "CDK11", "assay": "KINOMEscan competition binding assay", "design": "species or system human", "conditions": "CDK11, 10 µM", "description": "(§1) To examine specificity of DJ4 to different human kinases, we performed a KINOMEscan profiling assay (DiscoverX, Fremont, CA, USA). The KINOMEscan assay consists of a panel of more than 480 kinases of different classes (TK/TKL/STE/CK1/AGC/CAMK/CMGC/others), including clinically relevant mutants, atypical kinases, lipid, and pathogen kinases. […] However, we also recognized the limitations of DJ4 that preclude its clinical development and the need for further optimization of the DJ4 chemotype.\nThe KINOMEscan®, in vitro competition binding assay, was performed by Lead Hunter Discovery Services (DiscoverX Corporation, Fremont, CA, USA) to determine the kinase specificity of DJ4, a novel kinase inhibitor [19, 44]. The KINOMEscan® panel consists of more than 480 kinases, including clinically relevant mutants, lipid, atypical, and pathogen kinases, plus a growing panel of activation-state specific assays. The primary screen was performed using a single concentration of 10 µM, and the results for DJ4 binding interactions are reported as percent of control (%Ctrl). The %Ctrl is calculated as follows: [(DJ4 signal-positive control signal)/(negative control DMSO signal-positive control signal)] x […]. The human kinome tree annotation for DJ4 is plotted with Reaction Biology’s Kinase Mapper and KinMap web interface tool http://kinhub.org/kinmap (accessed on 09 January 2023)."}, "[2]": {"test_system": "EGFR mutants (G718C, G719S, L858R, etc.)", "assay": "KINOMEscan competition binding assay", "design": "species or system human", "conditions": "10 µM", "description": "as §1\n(§2) Figure 5 The kinase selectivity profile for DJ4 assessed using KINOMEscan high-throughput assay. […] The red spots (ROCK/MRCK/CDK/FLT3/KIT) indicate kinases with high specificity to DJ4. (C,D) The % inhibition profile of DJ4 with wild-type (WT) and its clinically relevant kinase mutants of RET (rearranged during transfection) tyrosine kinase (C) and EGFR (epidermal growth factor receptor) protein kinase (D).\n(§3) The KINOMEscan®, in vitro competition binding assay, was performed by Lead Hunter Discovery Services (DiscoverX Corporation, Fremont, CA, USA) to determine the kinase specificity of DJ4, a novel kinase inhibitor [19, 44]. […] The %Ctrl is calculated as follows: [(DJ4 signal-positive control signal)/(negative control DMSO signal-positive control signal)] x 00. […]"}, "[3]": {"test_system": "RET tyrosine kinase mutants (V804L/V804/M918T)", "assay": "KINOMEscan competition binding assay", "design": "species or system human", "conditions": "10 µM", "description": "as §1, §2, §3"}}, "data": [{"smiles": "O=C1N/C(=N\\CCc2ccccc2)S/C1=C/c1c[nH]c2ncccc12", "note": "[DJ4]", "values": [{"measurement": "cell death", "setting": "[1]; MDA-MB-231, 1 µM", "result": 29, "unit": "%"}, {"measurement": "cell death", "setting": "[1]; MDA-MB-231, 10 µM", "result": 47, "unit": "%"}, {"measurement": "inhibition (KINOMEscan)", "setting": "CDK11", "result": "more than 98%"}, {"measurement": "inhibition of EGFR mutants relative to wild-type form", "setting": "[2]", "result": "differential inhibition"}, {"measurement": "binding of RET mutants relative to wild-type", "setting": "[3]", "result": "stronger binding"}]}]}
